Reference: PMC4180444 (Toxicology letters, 2014)
“And” between values parts separate entries of the source, which are not always exact repeats. Identical values can stand only once. “Also recorded” adds a separate entry of the source. Like-named read-outs stand apart in the source and are kept apart here.

Columns and labels:
[1] = target: T1, human PPARγ (Homo sapiens, UniProt P37231); type: cell-based; conditions: for PPARγ agonist activity (result in words): 24 hr exposure, vs vehicle control; for fold increase in PPARγ activity relative to vehicle control: 10-fold concentration intervals (Fig. 4)
T1 sequence (P37231 1-505): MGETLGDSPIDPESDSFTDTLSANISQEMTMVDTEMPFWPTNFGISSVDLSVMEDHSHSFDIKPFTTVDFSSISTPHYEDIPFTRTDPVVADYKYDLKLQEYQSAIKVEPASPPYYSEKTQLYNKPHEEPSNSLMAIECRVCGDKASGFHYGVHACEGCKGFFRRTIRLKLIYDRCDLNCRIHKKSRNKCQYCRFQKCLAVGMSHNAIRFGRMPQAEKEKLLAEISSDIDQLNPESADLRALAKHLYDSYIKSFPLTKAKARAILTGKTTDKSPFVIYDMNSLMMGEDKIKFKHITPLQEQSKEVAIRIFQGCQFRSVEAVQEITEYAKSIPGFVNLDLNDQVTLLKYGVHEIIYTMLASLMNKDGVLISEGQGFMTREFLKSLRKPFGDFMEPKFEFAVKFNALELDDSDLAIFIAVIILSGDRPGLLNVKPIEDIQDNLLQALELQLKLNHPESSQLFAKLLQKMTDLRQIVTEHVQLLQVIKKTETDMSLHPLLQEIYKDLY

[2] = tested on: CHO PPARγ reporter cells; type: cell-based, Chinese Hamster; conditions: 0.1 μM to 100 μM; 24 hr
[3] = tested on: D283 Med cells; assay: MTS viability assay; type: cell-based, human; conditions: 1 μM to 30 μM, 48 hour exposure (Fig. 6 legend)
[4] = tested on: caspase 3 activity in D283 Med cells; assay: caspase 3 activity assay in cell lysates; type: cell-based, human; conditions: 6 hour exposure

## CCCCC(CC)COC(=O)c1cc(Br)c(Br)c(Br)c1Br (stereo not shown) [TBB, 2-ethylhexyl-2,3,4,5-tetrabromobenzoate]
[1]
  PPARγ agonist activity (result in words): No statistical differences; also recorded: No activity

## C=[CH][Sn]([CH2]CCC)([CH2]CCC)[CH2]CCC [TBVT, Tributyl(vinyl)tin, reference compound]
[1]
  Concentration of maximal PPARγ activity observed: 10 µM
[1]; 10 μM (10^-5 M)
  fold increase in PPARγ activity relative to vehicle control: 3 fold and 3.3 ± 0.3 fold

## O=P(Oc1ccccc1)(Oc1ccccc1)Oc1ccccc1 [TPP, triphenyl phosphate]
[1]
  Concentration of maximal PPARγ activity observed: 30 µM
  PPARγ agonist activity (result in words): Significant agonist activity
[1]; 10 μM (10^-5 M)
  fold increase in PPARγ activity relative to vehicle control: 6.23 ± 0.63 fold and 6.2 fold
[1]; 30 μM, focused analysis with half-log (3-fold) increments (Fig. 5)
  fold increase in PPARγ activity: 20 ± 2.2 fold
[1]; 100 μM
  fold increase in PPARγ activity relative to vehicle control: 2.84 ± 0.34 fold
[1]; TPP at 30 μM
  relative maximal PPARγ activity, percent of TPT Cl: 57% ± 6%
[2]
  effect on cell viability: dose dependent decreases in cell viability
[3]
  effect on viability: decreased viability
[4]
  concentration above which caspase activity significantly increased: above 1 μM
  effect on caspase 3 activity: significant dose dependent increases in caspase 3 activities

## [Cl][Sn]([c]1ccccc1)([c]1ccccc1)[c]1ccccc1 [TPT Cl, triphenyltin chloride, reference compound]
[1]
  Concentration of maximal PPARγ activity observed: 0.1 µM
[1]; non-monotonic concentration response
  concentration above which PPARγ activity decreased: > 0.1 µM
[1]; read-out: AC50, concentration eliciting half-maximal response, 4-parameter variable slope model
  AC50: 3 nM and 3.3 nM
